Test results as given in publication PMC12469672, “Effects on Oral Squamous Carcinoma Cell Lines and Their Mechanisms of Pyrazole N-Aryl Sulfonate: A Novel Class of Selective Cyclooxygenase-2 Inhibitors” (International Journal of Molecular Sciences, 2025).
“Also recorded” adds a separate entry of the source. Like-named read-outs stand apart in the source and are kept apart here.

Experiments:
[1] = test system: CYP19A1 mRNA in SAS cells; assay: RT-qPCR CYP19A1 mRNA, SAS; assay type: cell-based; details: vs control group and CXB-treated group
Protocol: (§1) Equal amounts of RNA were reverse transcribed into cDNA using the Reverse Transcription Kit (AG11705, Accurate Biology, Guangzhou, China) following the manufacturer’s instructions. Quantitative PCR was performed on a QIAGEN Rotor-GeneQ system (9001862, QIAGEN, Hilden, Germany) with SYBR Green Pro Taq HS Premix II (AG11702, Accurate Biology, China).
(§2) The PCR protocol consisted of initial denaturation at 95 °C for 30 s, followed by 40 cycles of 95 °C for 5 s and 60 °C for 30 s. All reactions were performed in triplicate, with melting curve analysis confirming amplification specificity. The expression of the target genes was normalized to GAPDH, and fold changes were calculated in the manner of the 2^−ΔΔCT .

COX-2 mRNA in SAS cells = assay: RT-qPCR COX-2 mRNA, SAS; assay type: cell-based; details: working concentrations, 24 h, vs control
Protocol: as §1, §2

[2] = test system: CYP19A1 mRNA in CAL-27 cells; assay: RT-qPCR CYP19A1 mRNA, CAL-27; assay type: cell-based; details: CAL-27, vs control
Protocol: as §1, §2

VERO cells = assay: CCK-8 cytotoxicity assay, VERO; assay type: cell-based, African green monkey; details: for IC50: Chlorocebus sabaeus, VERO, CCK-8, 24 h; for proliferation rate of VERO cells / cytotoxicity in VERO cells: working concentrations; for proliferation rate of VERO cells: 24 h, vs control; for cytotoxicity in VERO cells: vs CXB
Protocol: (§3) The OSCC cell lines CAL-27 (STCC12901P, Servicebio, Wuhan, China) and SAS (CC0706, Cellcook, Guangzhou, China) were cultured in Dulbecco Modified Eagle Medium F12 (DMEM/F12) (G4610-500ML, Servicebio, Wuhan, China) supplemented with 10% fetal bovine serum (FBS) (AB-FBS-DIA1050, ABW, Shanghai, China) and 100 U/mL penicillin-streptomycin-gentamicin solution (G4014-100ML, Servicebio, Wuhan, China). VERO cells were cultured in DMEM (G4524-500ML, Servicebio, Wuhan, China) supplemented with 10% FBS (AB-FBS-DIA1050, ABW, China) and 100 U/mL penicillin–streptomycin–gentamicin solution (G4014-100ML, Servicebio, Wuhan, China). […] were maintained at 37 °C in a humidified 5% CO2 incubator. For experiments, 1 × 10^6 cells were seeded per T-25 culture flask.
(§4) CAL-27, SAS, and VERO cells were seeded in 96-well plates at a density of 5000 cells per well. At specified time intervals, 10 μL of Cell Counting Kit-8 (CCK-8) reagent (K1018, Apexbio, Boston, MA, USA) was added to each well and incubated for 2 h. Absorbance at 450 nm was measured using a microplate reader (Infinite M200 Pro, Tecan Group, Männedorf, Switzerland).

HepG2 = details: previous experiments, preliminary screening; cited from earlier work
[3] = test system: COX-2 mRNA in CAL-27 cells; assay: RT-qPCR COX-2 mRNA, CAL-27; assay type: cell-based; details: CAL-27, working concentrations, 24 h
Protocol: as §1, §2

[4] = test system: BCL2 mRNA in CAL-27 cells; assay: RT-qPCR BCL2 mRNA, CAL-27; assay type: cell-based; details: CAL-27, 24 h, vs control (NC)
Protocol: as §1, §2

CAL-27 cells [5] = assay: Annexin V-FITC/PI flow cytometry apoptosis, CAL-27; assay type: cell-based; details: CAL-27, 24 h, vs control
Protocol: After 24 h drug treatment at the predefined working concentrations, CAL-27 and SAS cells were trypsinized, centrifuged (200× g, 5 min, RT), and washed twice with 1 mL ice-cold PBS. Cell aliquots ((5–10) × 10^4 cells) were resuspended in 195 μL Annexin V-FITC binding buffer, followed by sequential addition of 5 μL Annexin V-FITC and 10 μL propidium iodide (PI) (BMS500FI-100, Thermo Fisher Scientific, Wien, Austria) with gentle mixing. After 10–20 min of incubation in darkness (20–25 °C) with intermittent resuspension (2–3 times), samples were placed on ice and analyzed within 1 h using a flow cytometer (CytExpert software [Version 2.4.0.28, Beckman Coulter, Brea, CA, USA]). Triplicate independent experiments were performed for statistical analysis.

SAS cells = assay: CCK-8 proliferation assay, SAS; assay type: cell-based; details: for IC50: SAS; for Selectivity Index SAS: SI = IC50,VERO/IC50,SAS
Protocol: as §3, §4

CAL-27 cells [6] = assay: Transwell migration assay, CAL-27; assay type: cell-based; details: CAL-27, 24 h treatment at working concentrations, vs control
Protocol: Following 24 h drug treatment at the predefined working concentrations, CAL-27 and SAS cells (5 × 10^5 cells/mL in serum-free medium) were seeded in Transwell upper chambers (200 μL/well, 1 × 10^5 cells) with 700 μL complete medium containing 10% FBS in lower chambers. After 36 h of incubation (37 °C, 5% CO2), the cells from the upper surface of the membrane were wiped off using a cotton swab, whereupon migrated cells were fixed (4% paraformaldehyde [P0099-100 mL, Beyotime, Haimen, China], 4 °C, 4 h), stained (0.1% crystal violet [C0121-100 mL, Beyotime, China], 30 min), and quantified by counting five random fields under a microscope (CX23, Olympus, Tokyo, Japan) using ImageJ (v1.8.0.322), with triplicate wells per condition.

CAL-27 cells [7] = assay: Hoechst 33342 staining, CAL-27; assay type: cell-based; details: CAL-27, 24 h, working concentrations, vs NC
Protocol: After 24 h drug treatment at the predefined working concentrations, CAL-27 and SAS cells were dyed with 300 μL Hoechst 33342 staining (C1022, Beyotime, China) in the dark at 37 °C for 10 min. Then, the residual Hoechst 33342 staining was washed 3 times with 1 × phosphate-buffered saline (PBS, G4250-500ML, Servicebio, China). The images were then immediately examined under an inverted fluorescence microscope (CX23, Olympus, Japan).

[8] = CCK-8, 24 h, given as a range, read-out: IC50 (range)

| SMILES | CYP19A1 mRNA expression [1] | COX-2 mRNA level (COX-2 mRNA in SAS cells) | CYP19A1 mRNA expression [2] | IC50 (VERO cells) [µM] | proliferation rate of VERO cells (VERO cells) | cytotoxicity in VERO cells (VERO cells) | antiproliferative effect on HepG2 (HepG2) | apoptosis of HepG2 (HepG2) | migration of HepG2 (HepG2) | COX-2 mRNA level ([3]; vs CXB-treated group) | COX-2 mRNA level ([3]; vs control) | BCL2 mRNA level [4] | total apoptotic cell population (early and late apoptosis) (CAL-27 cells [5]) | IC50 (SAS cells; [8]) [µM] | IC50 (SAS cells; CCK-8, read-out: IC50 SAS) [µM] | Selectivity Index SAS (SAS cells) | migratory capacity (Transwell) (CAL-27 cells [6]) | apoptotic cells (Hoechst 33342, fluorescence microscopy) (CAL-27 cells [7]) |
| --- | --- | --- | --- | --- | --- | --- | --- | --- | --- | --- | --- | --- | --- | --- | --- | --- | --- | --- |
| Cc1ccc(-c2cc(C)n(S(=O)(=O)Oc3ccc(I)cc3)n2)cc1 [Compound 4b] | significantly reduced | significantly downregulated | significantly downregulated | 102 | remained largely unchanged | lower cytotoxicity than CXB | concentration-dependent antiproliferative effects | induction of apoptosis | suppression of migration | significantly lower | significantly downregulated | significantly downregulated | significantly higher; also recorded: strongest pro-apoptotic effect | 26 to 34.6 | 30.2 | 3.40 | significantly reduced | significant increase |
| Cc1ccc(-c2cc(C)n(S(=O)(=O)Oc3ccccc3Cl)n2)cc1 [Compound 4d] | significantly reduced | marked upregulation | significantly downregulated | > 100 | remained largely unchanged | lower cytotoxicity than CXB | concentration-dependent antiproliferative effects | induction of apoptosis | suppression of migration | significantly lower | significantly downregulated | significantly downregulated | significantly higher | 7.46 to 24.3 | 16.7 | >6.00 | significantly reduced | significant increase |
| Cc1cc(-c2ccco2)nn1S(=O)(=O)Oc1ccccc1Cl [Compound 5f] | significantly reduced | significantly downregulated | slightly influenced the expression, although not significantly | 225 | moderate inhibitory effect | lower cytotoxicity than CXB | concentration-dependent antiproliferative effects | induction of apoptosis | suppression of migration | significantly lower | significantly downregulated | upregulated | significantly higher | 59.4 to 69.5 | 64.2 | 3.50 | significantly reduced | significant increase |
